Biological target: T1, human vasopressin V1b receptor (Homo sapiens, UniProt P47901)
T1 construct: expressed in transfected cells; host or cells: CHO-K1 (cell line hV1b-3H2_CHO), membrane preparation
T1 sequence (P47901 1-424): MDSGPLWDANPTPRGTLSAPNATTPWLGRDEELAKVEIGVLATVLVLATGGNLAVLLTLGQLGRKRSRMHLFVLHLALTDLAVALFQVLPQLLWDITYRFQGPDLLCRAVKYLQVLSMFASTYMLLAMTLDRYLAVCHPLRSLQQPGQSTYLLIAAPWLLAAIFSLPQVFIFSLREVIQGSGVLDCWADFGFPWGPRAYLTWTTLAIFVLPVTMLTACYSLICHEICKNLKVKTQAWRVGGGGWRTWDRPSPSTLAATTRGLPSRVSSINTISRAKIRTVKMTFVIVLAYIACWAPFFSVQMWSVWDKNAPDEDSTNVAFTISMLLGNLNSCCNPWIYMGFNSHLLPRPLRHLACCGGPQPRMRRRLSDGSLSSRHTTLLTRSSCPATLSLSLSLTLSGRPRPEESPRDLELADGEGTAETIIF
Assay: Vasopressin V1b receptor binding assay
Settings: membranes from CHO-K1 cells with stably expressed human V1b receptors; displacement of 1.5 nM 3H-AVP; read-out: V1b receptor affinity (affinity constant Ki)
Outline: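 Membranes expressing human V1b receptor were incubated with radioligand and test compound (2% DMSO final) in 50 mM Tris, 10 mM MgCl2, 0.1% BSA, pH 7.4, for 60 min at room temperature, in triplicate. 1 uM AVP defined nonspecific binding. Bound ligand was separated by filtration and counted by scintillation; Ki came from nonlinear regression.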

Row | SMILES | Ki [nM]
1 | COc1ccc(S(=O)(=O)n2c(=O)n(C(C(=O)NCCN3CCNCC3)c3ccccc3)c3cc(Cl)ccc32)cc1 (stereo not shown) [Example 131, 2-[6-Chloro-3-(4-methoxybenzenesulfonyl)-2-oxo-2,3-dihydrobenzimidazol-1-yl]-2-phenyl-N-(2-piperazin-1-ylethyl)acetamide] | 100 to 500
2 | CCCN1CCN(CCNC(=O)C(c2ccccc2)n2c(=O)n(S(=O)(=O)c3ccc(OC)cc3)c3ccc(Cl)cc32)CC1 (stereo not shown) [Example 133, 2-[6-Chloro-3-(4-methoxybenzenesulfonyl)-2-oxo-2,3-dihydrobenzimidazol-1-yl]-2-phenyl-N-[2-(4-propylpiperazin-1-yl)-ethyl]-acetamide] | 100 to 500
3 | COc1ccc(S(=O)(=O)n2c(=O)n(C(C(=O)NCCCN3CCNCC3)c3ccccc3)c3cc(Cl)ccc32)cc1 (stereo not shown) [Example 135, 2-[6-Chloro-3-(4-methoxybenzenesulfonyl)-2-oxo-2,3-dihydrobenzimidazol-1-yl] 2-phenyl-N-(3-piperazin-1-ylpropyl)acetamide] | 100 to 500
4 | CCCN1CCN(CCCNC(=O)C(c2ccccc2)n2c(=O)n(S(=O)(=O)c3ccc(OC)cc3)c3ccc(Cl)cc32)CC1 (stereo not shown) [Example 136, 2-[6-Chloro-3-(4-methoxybenzenesulfonyl)-2-oxo-2,3-dihydrobenzimidazol-1-yl]-2-phenyl-N-[3-(4-propylpiperazin-1-yl)propyl]-acetamide] | 100 to 500
5 | COc1ccc(S(=O)(=O)n2c(=O)n(C(C(=O)NCCCN3CCN(C)CC3)c3ccccc3)c3cc(Cl)ccc32)cc1 (stereo not shown) [Example 137, 2-[6-Chloro-3-(4-methoxybenzenesulfonyl)-2-oxo-2,3-dihydrobenzimidazol-1-yl]-N-[3-(4-methylpiperazin-1-yl)propyl]-2-phenyl-acetamide] | 100 to 500
6 | COc1ccc(S(=O)(=O)n2c(=O)n(C(C(=O)N3CCCC(N4CCN(Cc5ccccc5)CC4)C3)c3ccccc3)c3cc(Cl)ccc32)cc1 (stereo not shown) [Example 139, 3-{2-[3-(4-Benzylpiperazin-1-yl)piperidin-1-yl]-2-oxo-1-phenylethyl}-5-chloro-1-(4-methoxybenzenesulfonyl)-1,3-dihydrobenzimidazol-2-one] | < 100
7 | COc1ccc(S(=O)(=O)n2c(=O)n(C(C(=O)N3CC[C@H](N4CCN(Cc5ccccc5)CC4)C3)c3ccccc3)c3cc(Cl)ccc32)cc1 (stereo partly drawn) [Example 140, 3-{2-[(S)-3-(4-Benzylpiperazin-1-yl)pyrrolidin-1-yl]-2-oxo-1-phenylethyl}-5-chloro-1-(4-methoxybenzenesulfonyl)-1,3-dihydrobenzimidazol-2-one] | < 100
8 | COc1ccc(S(=O)(=O)n2c(=O)n(C(C(=O)N3CCC(N4CCN(Cc5ccccc5)CC4)C3)c3ccccc3)c3cc(Cl)ccc32)cc1 (stereo not shown) [Example 141, 3-{2-[3-(4-Benzylpiperazin-1-yl)-pyrrolidin-1-yl]-2-oxo-1-phenylethyl}-5-chloro-1-(4-methoxybenzenesulfonyl)-1,3-dihydrobenzimidazol-2-one] | < 100
9 | COc1ccc(S(=O)(=O)n2c(=O)n(C(C(=O)N3CC[C@@H](N4CCN(Cc5ccccc5)CC4)C3)c3ccccc3)c3cc(Cl)ccc32)cc1 (stereo partly drawn) [Example 142, 3-{2-[(R)-3-(4-Benzylpiperazin-1-yl)-pyrrolidin-1-yl]-2-oxo-1-phenylethyl}-5-chloro-1-(4-methoxybenzenesulfonyl)-1,3-dihydrobenzimidazol-2-on] | 100 to 500
10 | COc1ccc(S(=O)(=O)n2c(=O)n(C(C(=O)N3CC[C@H](N4CCN(Cc5ccccc5)CC4)C3)c3ccccc3)c3cc(C#N)ccc32)cc1 (stereo partly drawn) [Example 143, 3-{2-[(S)-3-(4-Benzylpiperazin-1-yl)-pyrrolidin-1-yl]-2-oxo-1-phenylethyl}-1-(4-methoxybenzenesulfonyl)-2-oxo-2,3-dihydro-1H-benzimidazole-5-carbonitrile] | < 100
